This passage reports IC50 results from US12129237B2, “Substituted diaminocarboxamide and diaminocarbonitrile pyrimidines, compositions thereof, and methods of treatment therewith” (SIGNAL PHARMACEUTICALS, LLC, priority 2011, dated 2024).

For one experiment, the target named is T1, JNK1 (Homo sapiens, UniProt P45983).
T1 construct: purchased Carna Biosciences
T1 sequence (P45983 whole entry): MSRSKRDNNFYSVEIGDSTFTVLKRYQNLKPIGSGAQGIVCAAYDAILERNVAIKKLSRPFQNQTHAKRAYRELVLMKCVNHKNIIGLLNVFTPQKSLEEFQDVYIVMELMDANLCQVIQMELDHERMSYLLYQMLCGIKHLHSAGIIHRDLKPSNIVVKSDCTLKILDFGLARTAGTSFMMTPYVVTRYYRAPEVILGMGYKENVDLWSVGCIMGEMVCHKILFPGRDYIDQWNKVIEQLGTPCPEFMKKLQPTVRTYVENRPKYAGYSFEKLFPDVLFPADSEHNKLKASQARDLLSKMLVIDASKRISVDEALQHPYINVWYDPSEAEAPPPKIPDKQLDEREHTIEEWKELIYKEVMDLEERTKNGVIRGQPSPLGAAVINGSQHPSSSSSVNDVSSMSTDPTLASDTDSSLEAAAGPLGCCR
The experiment can be described thus: JNK1 biochemical assays (one or more of: time resolved fluorescence, Z'-LYTE Cascade, radioactive). As to conditions: Table 2; JNK1 IC50 activity level; read-out: Act. Level.
Protocol: JNK1 Assay. A 384-well time resolved fluorescence assay was used to monitor JNK1 activity. The JNK1 assay was run in the following assay buffer: 50 mM HEPES, 10 mM MgCl2, 1 mM EGTA, 2 mM DTT, and 0.01% Tween 20. To initiate the reaction 100 nM of ULight™-labeled 4EBP1 peptide (Perkin-Elmer) and 5 μM of ATP were mixed with 500 pM of JNK1 (Carna Biosciences), for a total assay volume of 20 μL in each well. The assay was incubated at room temperature for 1 h and terminated using a mixture of 30 mM EDTA and 4 nM Eu-anti-4EBP1, by adding 20 μL of stop solution to each well. Plates were read on a Perkin-Elmer Envision Reader.
JNK1 Assay. The JNK1 Z′-LYTE® Cascade kinase assay was run in the following buffer: 50 mM HEPES at pH 7.5, 0.01% BRIJ-35, 10 mM MgCl2, 1 mM EGTA, and 1 mM DTT. […] The assay was incubated at room temperature for 1 h. […] The data was then read on a fluorescence plate reader and analyzed.
JNK1 assay. The radioactive JNK kinase assay was carried out in a 96-well plate format at a final volume of 100 μL. […] JNK1 was diluted in the following dilution buffer (20 mM HEPES pH 7.6, 0.1 mM EDTA, 2.5 mM MgCl2, 0.004% (w/v) Triton X100, 2 μg/ml Leupeptin, 20 mM B-glycerol phosphate, 0.1 mM Na3VO4 dithiothreitol) and then pre-mixed with cJun diluted in the substrate solution buffer (20 mM HEPES pH 7.6, 50 mM NaCl, 0.1 mM EDTA, 2.5 mM MgCl2, 0.05% (w/v) Triton X100). […] The enzyme, substrate and inhibitor mixture was allowed to equilibrate at room temperature for 15 minutes. The reaction was started by the addition of 10 μL of 10×ATP in kinase buffer (130 mM MgCl2, 6 mM dithiothreitol, 150 mM para-nitrophenyl phosphate, 100 μCi/ml γ-[^33P]-ATP). Reactions were allowed to proceed for 60 minutes before precipitation of protein via trichloroacetic acid (7.2% TCA final). […] The precipitate was washed with Phosphate Buffered Saline and the amount of phosphate incorporated into cJun was quantified by scintillation counting using a Packard Topcount-NXT. All assays were conducted under conditions where phosphate incorporation was linear with respect to time and enzyme concentration.
With `NC(=O)c1cnc(N[C@H]2CCCc3ccccc32)nc1N[C@@H]1CCC[C@H](O)C1` [Example B-75, 4-((1R,3S)-3-hydroxycyclohexylamino)-2-((S)-1,2,3,4-tetrahydronaphthalen-1-ylamino)pyrimidine-5-carboxamid], the IC50 is less than 200 nM.

As to `NC(=O)c1cnc(N[C@@H]2CCc3ncccc3C2)nc1N[C@@H]1CCC[C@H](O)C1` [Example B-76, 4-((1R,3S)-3-hydroxycyclohexylamino)-2-((R)-5,6,7,8-tetrahydroquinolin-6-ylamino)pyrimidine-5-carboxamid], the IC50 is less than 200 nM.

Take `CC(C)Nc1nc(N[C@@H]2CCc3ccccc3C2)ncc1C(N)=O` [Example B-83, (R)-4-(isopropylamino)-2-(1,2,3,4-tetrahydronaphthalen-2-ylamino)pyrimidine-5-carboxamide]: the IC50 is less than 200 nM.

Turning to `NC(=O)c1cnc(N[C@H]2CCc3ccccc3C2)nc1N[C@@H]1CCC[C@H](O)C1` [Example B-85, 4-((1R,3)S-3-hydroxycyclohexylamino)-2-((S)-1,2,3,4-tetrahydronaphthalen-2-ylamino)pyrimidine-5-carboxamide], the IC50 was 800 to 1000 nM.

Consider `CCOc1ccccc1CNc1ncc(C(N)=O)c(Nc2ccccc2)n1` [Example B-54, 2-(2-ethoxybenzylamino)-4-(phenylamino)pyrimidine-5-carboxamide], for which the IC50 lay within 800 to 1000 nM.

The same experiment, now with this note: Table 3; JNK1 IC50 activity level; read-out: Act. Level.
In the case of `CC(C)(C)Nc1ncc(C#N)c(N[C@@H]2CCC[C@H](O)C2)n1` [Example C-7, 2-(tert-butylamino)-4-((1R,3S)-3-hydroxycyclohexylamino) pyrimidine-5-carbonitrile], the IC50 was in the range of 200 to 800 nM.

For the compound `CCO[C@H]1CC[C@H](Nc2ncc(C#N)c(N[C@@H]3CC[C@@H](C)[C@H](O)C3)n2)CC1` [Example C-41, 2-((1r,4R)-4-ethoxycyclohexylamino)-4-((1R,3R,4R)-3-hydroxy-4-methylcyclohexylamino) pyrimidine-5-carbonitrile], the IC50 was less than 200 nM.

Still in this experiment, the particulars now being: one or more of the JNK1 biochemical assays; read-out: Act. Level (JNK1 IC50 activity level).
`NC(=O)c1cnc(NC2CCCC(O)CC2)nc1NC1CCC1` (centres unmarked) [Example 248, 4-(cyclobutylamino)-2-(4-hydroxycycloheptylamino)pyrimidine-5-carboxamide]: the IC50 was less than 200 nM.

Take `CCO[C@H]1CC[C@H](Nc2ncc(C(N)=O)c(NC3C4CC3C4)n2)CC1` (some centres unmarked) [Example 476, 4-(bicyclo[1.1.1]pentan-2-ylamino)-2-((1r,4r)-4-ethoxycyclohexylamino)pyrimidine-5-carboxamide]: the IC50 was less than 200 nM.

Take `CO[C@H]1CC[C@H](Nc2ncc(C(N)=O)c(N[C@]3(C)CCC[C@H](O)C3)n2)CC1` [Example 215, 4-((1R,3S)-3-hydroxy-1-methylcyclohexylamino)-2-((1r,4R)-4-methoxycyclohexylamino)pyrimidine-5-carboxamide]: the IC50 was less than 200 nM.

Take `CCO[C@H]1CC[C@H](Nc2ncc(C(N)=O)c(NC(C)(C)C)n2)CC1` [Example 211, 4-(tert-butylamino)-2-((1r,4r)-4-ethoxycyclohexylamino)pyrimidine-5-carboxamide]: the IC50 was less than 200 nM.

As to `CC1(Nc2ncc(C(N)=O)c(N[C@@H]3CCC[C@H](O)C3)n2)CC1` [Example 438, 4-((1R,3S)-3-hydroxycyclohexylamino)-2-(1-methylcyclopropylamino)pyrimidine-5-carboxamide], the IC50 is less than 200 nM.

The experiment is the same for the next values; noted with them: tested in one or more of the JNK1 biochemical assays; read-out: Act. Level (JNK1 biochemical assay IC50 activity level).
For `CCO[C@H]1CC[C@H](Nc2ncc(C(N)=O)c(NC3CCC[C@H](O)C3)n2)CC1` (stereo partly drawn) [Example A-58, 2-((1r,4R)-4-ethoxycyclohexylamino)-4-((1R,3S)-3-hydroxycyclohexylamino)pyrimidine-5-carboxamide], the IC50 is less than 200 nM.

As for `CN(C)C(=O)[C@H]1CC[C@@H](Nc2nc(NC3CCC3)ncc2C(N)=O)CC1` [Example A-134, 2-(cyclobutylamino)-4-((1s,4s)-4-(dimethylcarbamoyl)cyclohexylamino)pyrimidine-5-carboxamide], the IC50 was in the range of 1000 to 10000 nM.
